Experimental data reported in ChEMBL document CHEMBL1146165, “Structure-based de novo design, synthesis, and biological evaluation of the indole-based PPARgamma ligands (I)” (Bioorg Med Chem Lett, 2006).

Target: T1, Peroxisome proliferator-activated receptor gamma (Homo sapiens, UniProt P37231)
T1 sequence (P37231 whole entry): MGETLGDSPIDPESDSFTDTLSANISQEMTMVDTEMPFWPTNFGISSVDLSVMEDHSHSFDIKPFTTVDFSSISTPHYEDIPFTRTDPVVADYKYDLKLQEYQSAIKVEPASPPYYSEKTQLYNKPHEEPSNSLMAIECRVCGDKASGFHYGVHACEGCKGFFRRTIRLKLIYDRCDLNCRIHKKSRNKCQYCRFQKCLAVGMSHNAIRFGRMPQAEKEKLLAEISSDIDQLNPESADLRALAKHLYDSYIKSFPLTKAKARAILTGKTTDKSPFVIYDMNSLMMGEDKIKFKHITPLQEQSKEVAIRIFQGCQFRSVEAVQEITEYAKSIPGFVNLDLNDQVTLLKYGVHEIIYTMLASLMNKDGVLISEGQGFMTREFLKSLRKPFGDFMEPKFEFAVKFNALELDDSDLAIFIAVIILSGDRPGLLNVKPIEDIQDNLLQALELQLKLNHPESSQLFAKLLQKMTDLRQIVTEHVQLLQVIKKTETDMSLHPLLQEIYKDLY
Assay: Binding affinity to human PPARgamma

| Kd | Structure (SMILES) |
| --- | --- |
| 6.86 µM | O=C(NC(Cc1c[nH]c2cc(OCc3ccccc3)ccc12)C(=O)O)c1ccc(Cl)cc1 (configuration not stated) |
| 8.69 µM | O=C(NC(Cc1c[nH]c2cc(OCc3ccccc3)ccc12)(C(=O)O)C(=O)O)c1ccc(Cl)cc1 |
